From the NIST ThermoML archive (doi:10.1021/je800331n) come the findings set out here.

For this data set the following is noted: Liquid, Vibrating tube method.

± gives the expanded uncertainty stated by the source.

On to `CCCCn1cc[n+](C)c1.F[B-](F)(F)F` [1-butyl-3-methylimidazolium tetrafluoroborate], for which the mass density (as a rule, mass per unit of volume) is on record as 1192.03 ± 0.39 kg/m3 (298.15 K); 1188.38 ± 0.39 kg/m3 (303.15 K); 1181.25 ± 0.38 kg/m3 (313.15 K); 1174.18 ± 0.37 kg/m3 (323.15 K); 1167.09 ± 0.37 kg/m3 (333.15 K); 1160.17 ± 0.36 kg/m3 (343.15 K). Further, the mass density (353.15 K) is given as 1152.63 ± 0.36 kg/m3.
`CCCCn1cc[n+](C)c1.F[P-](F)(F)(F)(F)F` [1-butyl-3-methylimidazolium hexafluorophosphate]: the mass density reads like this: (298.15 K) 1366.57 ± 0.55 kg/m3; (303.15 K) 1362.23 ± 0.54 kg/m3; (308.15 K) 1357.92 ± 0.54 kg/m3; (313.15 K) 1353.63 ± 0.53 kg/m3; (323.15 K) 1345.33 ± 0.53 kg/m3.
